target: T1, TRPV1 receptors (Mus musculus, UniProt Q704Y3); assay: Test of mouse corneal irritation (capsaicin ocular instillation); format: in vivo; details: 1 mg/kg (po), pretreatment time t = 1 h, n = 10, 2 μl of 160 μM capsaicin in the eye, rubbing counted for 2 min
T1 construct: from tissue; host or cells: cornea of the living mouse (C fibres)
Experimental: Test of Mouse Corneal Irritation
The irritant nature of capsaicin is readily assessed on the cornea since this organ is one of the organs most densely innervated with C fibres. In this context, from preliminary experiments, the application of a very small amount of capsaicin (2 μl at a concentration of 160 μM) to the surface of the cornea of an animal leads to a certain number of stereotypical behavioral traits associated with irritation, which are easy to record. Among these, the following are noted: blinking of the eye, rubbing of the instilled eye with the ipsilateral front paw, rubbing of the face with both front paws, scratching of the ipsilateral face with the hind paw. […] Its aspect is moreover also normal. […]
In practice, the test product is administered orally and, with a delay (pretreatment time: t) that depends on the pharmacokinetic data, the animal receives an ocular instillation of 2 μl of a 160 μM capsaicin solution prepared as indicated above. During a 2-minute observation following the instillation, the number of times the instilled eye is rubbed with the ipsilateral front paw is recorded.
For a given animal, the percentage of protection is calculated as follows: P=100−((number of scratching actions observed/mean number of scratching actions for the group treated with the solvent)×100) […]

T1 sequence (Q704Y3 whole entry): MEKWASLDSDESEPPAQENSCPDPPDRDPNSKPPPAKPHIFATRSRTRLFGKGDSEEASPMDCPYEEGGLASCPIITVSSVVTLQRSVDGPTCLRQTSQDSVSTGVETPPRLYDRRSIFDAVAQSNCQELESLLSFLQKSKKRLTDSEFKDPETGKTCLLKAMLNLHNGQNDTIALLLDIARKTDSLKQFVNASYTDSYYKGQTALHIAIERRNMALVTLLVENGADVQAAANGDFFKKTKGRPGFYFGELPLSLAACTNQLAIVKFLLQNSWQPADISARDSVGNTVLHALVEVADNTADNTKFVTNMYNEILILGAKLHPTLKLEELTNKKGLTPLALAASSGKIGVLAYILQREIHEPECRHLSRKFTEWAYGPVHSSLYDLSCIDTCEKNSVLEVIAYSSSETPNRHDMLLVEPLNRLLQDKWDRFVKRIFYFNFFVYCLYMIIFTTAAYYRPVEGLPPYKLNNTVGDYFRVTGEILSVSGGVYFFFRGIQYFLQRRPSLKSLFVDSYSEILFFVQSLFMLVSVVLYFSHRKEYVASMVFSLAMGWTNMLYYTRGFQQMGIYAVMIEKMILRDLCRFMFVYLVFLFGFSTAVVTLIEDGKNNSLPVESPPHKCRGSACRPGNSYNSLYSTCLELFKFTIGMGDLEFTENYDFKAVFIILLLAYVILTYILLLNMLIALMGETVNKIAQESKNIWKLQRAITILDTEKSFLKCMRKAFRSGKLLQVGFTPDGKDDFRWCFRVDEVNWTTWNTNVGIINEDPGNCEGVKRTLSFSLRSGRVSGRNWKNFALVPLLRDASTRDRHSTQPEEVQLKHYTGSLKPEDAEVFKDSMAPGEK

Structure (SMILES) | % P (percentage of protection)
Cn1cnc2cc(NC(=O)c3cc4cc(F)cnc4n3Cc3cccc(F)c3)ccc21 [Compound 15, N-(1-methyl-1H-benzimidazol-5-yl)-5-fluoro-1-[(3-fluorophenyl)methyl]-1H-pyrrolo[2,3-b]pyridine-2-carboxamide] | 50% - (1 h)

test system: not given; assay: not given; details: not given

melting point [°C] | Structure (SMILES)
226 to 228 | Cc1nc2cc(NC(=O)c3cc4cc(F)cnc4n3Cc3cccc(F)c3)ccc2n1C
245 to 247 | Cc1nc2cc(NC(=O)c3cc4ncccc4n3Cc3cccc(F)c3)ccc2n1C
263 to 265 | Cc1nc2cc(NC(=O)c3cc4ncccc4n3Cc3cccc(F)c3)ccc2s1
213 to 214.5 | Cn1ccc2cc(NC(=O)c3cc4ccncc4n3Cc3cccc(F)c3)ccc21
229 to 231 | Cn1ccc2cc(NC(=O)c3cc4cc(C(F)(F)F)cnc4n3Cc3cccc(F)c3)ccc21
286 to 288 | Cc1nc2cc(NC(=O)c3cc4cccnc4n3-c3ccccc3)ccc2n1C
263 to 264 | Cc1nc2cc(NC(=O)c3cc4cnccc4n3Cc3cccc(F)c3)ccc2n1C
277 to 281 | Cn1cnc2cc(NC(=O)c3cc4ncccc4n3Cc3cccc(F)c3)ccc21
240 to 242 | Cc1nc2cc(NC(=O)c3cc4cc(Cl)ncc4n3Cc3cccc(F)c3)ccc2n1C
